Drawing on PubChem BioAssay (NCI), this text covers TGI and GI50 for 13 molecules.

Among the test systems are KM12 colon; UO-31 renal; SF-539 CNS; DU-145 prostate; M14 melanoma; HCC-2998 colon; OVCAR-8 ovarian; SF-268 CNS; HL-60(TB) leukemia; NCI-H460 lung.
What all share (assay): NCI-60 cell line screen, 48 h

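The compound was tested at five concentrations on cells cultured in 96-well plates, with a 48-hour exposure period. GI50 marks 50% less growth. TGI: total growth inhibition.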

For `O=C1/C(=C/c2ccccc2)CN(C(=O)CCN2CCCC2)C/C1=C\c1ccccc1`, the TGI in the assay on KM12 colon was 1.82 µM; with UO-31 renal it was 7.73 µM; in the assay on SF-539 CNS it was 5.4 µM; in the assay on DU-145 prostate it was 18.1 µM; in the assay with M14 melanoma, 3.62 µM; with HCC-2998 colon it was 3.22 µM. Moreover, the TGI turned out to be 6.17 µM in the assay with OVCAR-8 ovarian, 5.8 µM with SF-268 CNS, 1.18 µM in the assay on HL-60(TB) leukemia and 4.52 µM with NCI-H460 lung.

Regarding `O=c1/c(=C\c2ccc(F)cc2)sc2n1C(c1ccc(F)cc1)C1=C(N=2)c2ccc3ccccc3c2OCC1` (centres undefined), the GI50 in the assay with KM12 colon is > 89.8 µM; with UO-31 renal, > 100 µM; in the assay with SF-539 CNS, > 100 µM; with DU-145 prostate, > 100 µM; in the assay with M14 melanoma it was > 100 µM; in the assay on HCC-2998 colon, > 100 µM. The GI50 in the assay with OVCAR-8 ovarian was > 100 µM; with SF-268 CNS, > 30.8 µM; in the assay on HL-60(TB) leukemia it was > 100 µM; in the assay with NCI-H460 lung, 14.2 µM. In addition, the TGI in the assay with KM12 colon, in the assay on UO-31 renal, with SF-539 CNS, in the assay on DU-145 prostate, with M14 melanoma and in the assay with HCC-2998 colon was > 100 µM each time. The TGI in the assay with OVCAR-8 ovarian, in the assay on SF-268 CNS, in the assay with HL-60(TB) leukemia and in the assay on NCI-H460 lung was > 100 µM throughout.

`COc1ncnc(S(=O)(=O)c2ccc(N=C3C(=O)N(CN4CCN(c5cc6c(cc5F)c(=O)c(C(=O)O)cn6C5CC5)CC4)c4ccc(Cl)cc43)cc2)c1OC`: the GI50 was 24.2 µM with KM12 colon; 47.2 µM in the assay on UO-31 renal; > 50 µM in the assay on SF-539 CNS; > 50 µM with DU-145 prostate; > 50 µM in the assay on M14 melanoma; 37.9 µM with HCC-2998 colon. Besides, the GI50 was 32.9 µM in the assay on OVCAR-8 ovarian, 49 µM with SF-268 CNS, 26.8 µM with HL-60(TB) leukemia and 37.4 µM with NCI-H460 lung. Besides, the TGI with KM12 colon, with UO-31 renal, in the assay with SF-539 CNS, in the assay with DU-145 prostate, in the assay on M14 melanoma and in the assay with HCC-2998 colon was > 50 µM each time. Also, the TGI in the assay with OVCAR-8 ovarian, with SF-268 CNS, with HL-60(TB) leukemia and in the assay on NCI-H460 lung was > 50 µM throughout.

Regarding `Cc1c2c(c(C)c3c4c(oc13)CCCC4)C=NCC2`, the TGI came to 33 µM with KM12 colon; 25.8 µM in the assay on UO-31 renal; 28.9 µM with SF-539 CNS; 28.5 µM in the assay with DU-145 prostate; 44.5 µM in the assay with M14 melanoma; 36.1 µM in the assay with HCC-2998 colon. In addition, the TGI in the assay on OVCAR-8 ovarian was 23.1 µM; in the assay on SF-268 CNS, 41.2 µM; in the assay with HL-60(TB) leukemia, 43.4 µM; in the assay on NCI-H460 lung it was 31.2 µM.

`COc1cc2c(cc1OC)C(=O)/C(=C/c1cc(-c3ccc4c(c3)OCO4)n[nH]1)C2`: the GI50 in the assay on KM12 colon is 1.29 µM; in the assay with UO-31 renal, 1.29 µM; with SF-539 CNS, 1.27 µM; in the assay with DU-145 prostate, 1.45 µM; in the assay on M14 melanoma, 1.82 µM; in the assay with HCC-2998 colon, 1.88 µM. Besides, the GI50 is 1.57 µM with OVCAR-8 ovarian, 1.63 µM with SF-268 CNS, 2.07 µM with HL-60(TB) leukemia and 1.68 µM in the assay with NCI-H460 lung. For the same molecule, the TGI in the assay with KM12 colon came to 2.73 µM; in the assay on UO-31 renal it was 2.67 µM; with SF-539 CNS it was 2.57 µM; with DU-145 prostate, 2.86 µM; in the assay with M14 melanoma it was 3.4 µM; in the assay with HCC-2998 colon, 3.44 µM. Besides, the TGI in the assay on OVCAR-8 ovarian came to 3.05 µM; in the assay on SF-268 CNS, 3.37 µM; in the assay on HL-60(TB) leukemia, 5.59 µM; in the assay with NCI-H460 lung, 3.79 µM.

With `O=C(Nn1c(-c2ccccc2)nc2ccccc2c1=O)c1ccccc1O`, the TGI with KM12 colon, with UO-31 renal, in the assay with SF-539 CNS, in the assay with DU-145 prostate, in the assay on M14 melanoma and with HCC-2998 colon was > 100 µM throughout. The TGI in the assay with OVCAR-8 ovarian, with SF-268 CNS, in the assay on HL-60(TB) leukemia and with NCI-H460 lung was > 100 µM each time.

Regarding `O=C(Oc1ccc(CO[N+](=O)[O-])cc1)c1ccccc1`, the GI50 with KM12 colon is 0.163 µM; in the assay on UO-31 renal it was 0.172 µM; in the assay on SF-539 CNS it was 0.153 µM; in the assay with DU-145 prostate it was 0.289 µM; with M14 melanoma it was 0.115 µM; in the assay with HCC-2998 colon it was 0.201 µM. Besides, the GI50 in the assay on OVCAR-8 ovarian is 0.153 µM; with SF-268 CNS, 0.167 µM; with HL-60(TB) leukemia, 0.0514 µM; with NCI-H460 lung, 0.239 µM. For the same molecule, the TGI amounted to 0.33 µM in the assay with KM12 colon; 0.322 µM with UO-31 renal; 0.287 µM in the assay with SF-539 CNS; 0.818 µM with DU-145 prostate; 0.271 µM in the assay on M14 melanoma; 0.447 µM with HCC-2998 colon. Besides, the TGI was 0.288 µM in the assay on OVCAR-8 ovarian, 0.317 µM with SF-268 CNS, 0.267 µM with HL-60(TB) leukemia and 1.09 µM in the assay with NCI-H460 lung.

As for `OCc1ccc(-c2cscc2-c2ccc(CO)o2)o1`, the GI50 was 97.4 µM in the assay on KM12 colon; 56.1 µM in the assay on UO-31 renal; > 100 µM in the assay on SF-539 CNS; 25.9 µM in the assay on DU-145 prostate; > 100 µM in the assay on M14 melanoma; 24.2 µM in the assay on HCC-2998 colon. The GI50 in the assay on OVCAR-8 ovarian is 29.9 µM; with SF-268 CNS, > 100 µM; with HL-60(TB) leukemia, > 100 µM; with NCI-H460 lung, 1.34 µM. Moreover, the TGI with KM12 colon was > 100 µM; with UO-31 renal, > 100 µM; with SF-539 CNS it was > 100 µM; in the assay on DU-145 prostate, > 100 µM; with M14 melanoma, > 100 µM; in the assay on HCC-2998 colon it was > 96.6 µM. Besides, the TGI was > 100 µM in the assay on OVCAR-8 ovarian, > 100 µM in the assay with SF-268 CNS, > 100 µM with HL-60(TB) leukemia and 5.92 µM in the assay on NCI-H460 lung.

For `COc1ccc(-c2nc(-c3nc4ccc(F)cc4[nH]3)c3ccccn23)cc1`, the GI50 in the assay on KM12 colon is 7.03 µM; with UO-31 renal it was 6.99 µM; in the assay on SF-539 CNS, 10.4 µM; in the assay on DU-145 prostate, 10.7 µM; in the assay with M14 melanoma it was 12.9 µM; in the assay with HCC-2998 colon, 6.59 µM. Besides, the GI50 in the assay on OVCAR-8 ovarian is 3.76 µM; in the assay on SF-268 CNS it was 7.2 µM; with HL-60(TB) leukemia, 39.8 µM; in the assay with NCI-H460 lung, 6.83 µM. The TGI is > 100 µM with KM12 colon; 56.2 µM in the assay on UO-31 renal; 45.2 µM with SF-539 CNS; 40.2 µM in the assay with DU-145 prostate; > 100 µM in the assay with M14 melanoma; > 100 µM in the assay on HCC-2998 colon. Further, the TGI with OVCAR-8 ovarian is 23.4 µM; in the assay on SF-268 CNS, 57.8 µM; with HL-60(TB) leukemia, > 100 µM; in the assay with NCI-H460 lung, > 100 µM.

Take `COC(=O)COc1ccc(/C=C2/N=C(c3ccccc3)N(c3c(C)n(C)n(-c4ccccc4)c3=O)C2=O)cc1`: the GI50 with KM12 colon is 26.6 µM; with UO-31 renal it was 17 µM; with SF-539 CNS, 16.1 µM; with DU-145 prostate it was 16.6 µM; in the assay with M14 melanoma it was 32.5 µM; in the assay on HCC-2998 colon, 16.9 µM. The GI50 is 18.8 µM with OVCAR-8 ovarian, 12.8 µM in the assay with SF-268 CNS, 26.2 µM in the assay with HL-60(TB) leukemia and 26 µM in the assay with NCI-H460 lung. For the same molecule, the TGI was 84.2 µM in the assay with KM12 colon; 32.3 µM with UO-31 renal; 30.2 µM in the assay on SF-539 CNS; 30.2 µM in the assay with DU-145 prostate; > 100 µM with M14 melanoma; 33.4 µM in the assay with HCC-2998 colon. Besides, the TGI is 33.7 µM in the assay on OVCAR-8 ovarian, 30.5 µM in the assay on SF-268 CNS, 67.2 µM with HL-60(TB) leukemia and > 100 µM with NCI-H460 lung.

On to `COc1ccc(C(O)c2cc3c(N)c(C(=O)Nc4cccc(Cl)c4)sc3nc2C)cc1` (centres undefined), for which the GI50 was 1.1 µM in the assay on KM12 colon; 2.41 µM in the assay on UO-31 renal; 0.858 µM in the assay with SF-539 CNS; 1.16 µM with DU-145 prostate; 0.731 µM in the assay with M14 melanoma; 1.76 µM in the assay on HCC-2998 colon. For the same molecule, the GI50 in the assay on OVCAR-8 ovarian is 1.45 µM; in the assay with SF-268 CNS, 2.79 µM; in the assay with HL-60(TB) leukemia, 0.868 µM; in the assay with NCI-H460 lung, 1.06 µM. Further, the TGI with KM12 colon was > 33.4 µM; with UO-31 renal it was > 56.2 µM; in the assay with DU-145 prostate, > 22 µM; in the assay on M14 melanoma, > 36.5 µM; in the assay with HCC-2998 colon it was > 35.9 µM; with OVCAR-8 ovarian, > 47.8 µM. The TGI is > 46.2 µM with SF-268 CNS, 2.78 µM with HL-60(TB) leukemia and 5.53 µM with NCI-H460 lung.

Take `Cc1nn2c(/C=C3/C(=O)Nc4cc(Cl)ccc43)c(-c3ccccc3)nc2s1`: the GI50 is 59.1 µM in the assay on KM12 colon; 1.59 µM in the assay with UO-31 renal; 1.71 µM in the assay with SF-539 CNS; 4.02 µM in the assay with DU-145 prostate; 6.54 µM with M14 melanoma; > 100 µM in the assay on HCC-2998 colon. Further, the GI50 in the assay with OVCAR-8 ovarian was 2.89 µM; in the assay with SF-268 CNS, 6.81 µM; in the assay on HL-60(TB) leukemia, > 100 µM; in the assay with NCI-H460 lung it was 3.72 µM. The TGI is > 100 µM in the assay with KM12 colon; 3.53 µM in the assay with UO-31 renal; 3.46 µM in the assay on SF-539 CNS; 18.2 µM in the assay with DU-145 prostate; > 100 µM in the assay with M14 melanoma; > 100 µM in the assay on HCC-2998 colon. Also, the TGI with OVCAR-8 ovarian, in the assay on SF-268 CNS, in the assay with HL-60(TB) leukemia and in the assay with NCI-H460 lung was > 100 µM each time.

Turning to `Cc1cc(O)c(C2=NN(c3ccc(S(N)(=O)=O)cc3)C(c3ccc(Cl)cc3)C2)c(C)c1Cl` (centres undefined), the GI50 with KM12 colon was 2.8 µM; with UO-31 renal, 3.78 µM; in the assay on SF-539 CNS it was 12.3 µM; in the assay with DU-145 prostate it was 5.6 µM; with M14 melanoma, 2.62 µM; in the assay with HCC-2998 colon it was 6.48 µM. Besides, the GI50 is 5.75 µM with OVCAR-8 ovarian, 5.76 µM with SF-268 CNS, 7.84 µM in the assay with HL-60(TB) leukemia and 2.53 µM in the assay on NCI-H460 lung. The TGI in the assay on KM12 colon was 10.6 µM; in the assay on UO-31 renal, 19.2 µM; with SF-539 CNS, 24.7 µM; with DU-145 prostate, 17.6 µM; with M14 melanoma, 10.4 µM; in the assay on HCC-2998 colon, 19.1 µM. Moreover, the TGI in the assay with OVCAR-8 ovarian is 21.6 µM; in the assay with SF-268 CNS, 19.4 µM; in the assay on HL-60(TB) leukemia, 20.8 µM; in the assay on NCI-H460 lung, 7.24 µM.
